Data from patent US20260226071A1, “2, 4-DIANILINOPYRIMIDINE-BASED AURORA-A KINASE SELECTIVE DEGRADATION INDUCING COMPOUNDS” (UPPTHERA, INC., priority 2023, published 2026).

Molecular target: T1, Aurora kinase A (AURKA) (Homo sapiens, UniProt O14965)
T1 construct: endogenous in cells; host or cells: HeLa LgBit (AURKA-HiBit KI), CRISPR/Cas9 knock-in at the endogenous AURKA locus
T1 sequence (O14965 1-403): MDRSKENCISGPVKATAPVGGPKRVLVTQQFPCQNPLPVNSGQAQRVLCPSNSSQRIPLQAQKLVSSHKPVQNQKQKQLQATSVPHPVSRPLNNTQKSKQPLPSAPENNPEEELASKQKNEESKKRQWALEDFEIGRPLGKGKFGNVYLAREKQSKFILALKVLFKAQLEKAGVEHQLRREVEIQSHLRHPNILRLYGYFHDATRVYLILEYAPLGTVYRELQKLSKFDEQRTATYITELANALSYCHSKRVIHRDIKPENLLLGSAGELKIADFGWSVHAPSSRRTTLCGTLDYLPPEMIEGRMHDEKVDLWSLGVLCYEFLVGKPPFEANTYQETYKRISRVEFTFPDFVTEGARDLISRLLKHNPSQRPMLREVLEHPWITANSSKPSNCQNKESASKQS
Assay: Luciferase assay for AURKA in HeLa LgBit (AURKA-HiBit KI) cell line
Assay type: cell-based
Conditions: HeLa LgBit (AURKA-HiBit KI) cells, measured after 12 hours
Text: HeLa cell lines that stably express LgBit were constructed via LgBit vector transfection. Then, donor DNA and guide RNA for insertion of HiBit amino acid sequence at C-terminus of inherent Aurora kinase A (AURKA) genes were designed and constructed. Thereafter, they were transfected into the cell lines with CRISPR/Cas9 expression vector system. HiBit gene knock-in single cells were selected, passaged and used for the experiments.
For cell culture, DMEM (Gibco, Cat. No. 11995-065; Lot. No. 2562497), FBS (Gibco, Cat. No. 16000-044; Lot. No. 2511328P), Penicillin/Streptomycin (PS) (Gibco, Cat. No. 15140-122; Lot. No. 2585636), 90 mm^2 cell culture dish (SPL, Cat. No. 20100), 96-well white plate, PBS pH 7.4 (Gibco, […]), TrypLE™ Express (Gibco, Cat. No. 12605-010; Lot. No. 2522525), counting chamber (hematocytometer) (Hirschmann, Cat. No. 8100204; Lot. No. 8021087) and 0.4% Trypan Blue solution (DYNEBIO, Cat. No. CBT3710; Lot. No. 20231017) were used. Cells were cultured in DMEM supplemented with 10% FBS and 1% PS and incubated in CO2 incubator (Thermo, Cat. No. 4111) at 37° C., 5% CO2 condition.
HeLa LgBit (AURKA-HiBit KI) cell lines were cultured in 90 mm^2 cell culture dish, and 3×10^4 cells in […] of total medium volume were seeded and incubated for 18 hours in CO2 incubator. Then, Eudurazine (Promega, Cat. No. N247B; Lot. No. 495218) was added to each well to make up 1% of the total volume, followed by further incubation for 2 hours in CO2 incubator.
The present compounds were fully dissolved in DMSO (Sigma-Aldrich Cat. No. D2438, Lot. No. RNBL7287) and 10 nM or 100 nM of total concentration were used in the experiment. After adding the compounds in each well of 96-well white plate, the plate was placed in the plate reader (BMG Labtech, CLARIOstar Plus) for real-time analysis. The wavelength for analysis was set to […], and the luminescence value was measured after 12 hours. The luminescence value was analyzed through an Excel program.

Row | luminescence value (Level) (10 nM compound) | luminescence value (Level) (100 nM compound) | SMILES
1 | B (B is 0.3 to 0.5) | A (A is <0.2) | O=C1CCC(c2ccc(N3CCN(CCC4CCN(NC(=O)c5ccc(Nc6ncc(F)c(Nc7ccc(C(=O)NC8CCCCC8)cc7)n6)cc5)CC4)CC3)cc2)C(=O)N1 (stereo not shown) [Compound 92, N-cyclohexyl-4-((2-((4-((4-(2-(4-(4-(2,6-dioxopiperidin-3-yl)phenyl)piperazin-1-yl)ethyl)piperidin-1-yl)carbamoyl)phenyl)amino)-5-fluoropyrimidin-4-yl)amino)benzamide]
2 | B (B is 0.3 to 0.5) | A (A is <0.2) | CN(C(=O)c1ccc(Nc2nc(Nc3ccc(C(=O)NN4CCC(CCN5CCN(c6ccc(C7CCC(=O)NC7=O)cc6)CC5)CC4)cc3)ncc2F)cc1)c1ccccc1Cl (stereo not shown) [Compound 102, 4-[[4-[4-[(2-chlorophenyl)-methyl-carbamoyl]anilino]-5-fluoro-pyrimidin-2-yl]amino]-N-[4-[2-[4-[4-(2,6-dioxo-3-piperidyl)phenyl]piperazin-1-yl]ethyl]-1-piperidyl]benzamide]
3 | B (B is 0.3 to 0.5) | A (A is <0.2) | O=C1CCC(c2ccc(N3CCN(CCC4CCN(NC(=O)c5ccc(Nc6ncc(F)c(Nc7ccc(C(=O)Nc8ccccc8Cl)cc7)n6)cc5F)CC4)CC3)cc2)C(=O)N1 (stereo not shown) [Compound 105, 4-[[4-[4-[(2-chlorophenyl)carbamoyl]anilino]-5-fluoro-pyrimidin-2-yl]amino]-N-[4-[2-[4-[4-(2,6-dioxo-3-piperidyl)phenyl]piperazin-1-yl]ethyl]-1-piperidyl]-2-fluoro-benzamide]
4 | A (A is <0.3) | A (A is <0.2) | Cn1nc(C2CCC(=O)NC2=O)c2cc(F)c(N3CCN(CCC4CCN(NC(=O)c5ccc(Nc6ncc(F)c(Nc7ccc(C(=O)Nc8ccccc8Cl)cc7)n6)cc5)CC4)CC3)cc21 (stereo not shown) [Compound 107, N-(2-chlorophenyl)-4-((2-((4-((4-(2-(4-(3-(2,6-dioxopiperidin-3-yl)-5-fluoro-1-methyl-1H-indazol-6-yl)piperazin-1-yl)ethyl)piperidin-1-yl)carbamoyl)phenyl)amino)-5-fluoropyrimidin-4-yl)amino)benzamide]
5 | C (C is 0.5 to 0.7) | B (B is 0.2 to 0.4) | COc1cc(N2CCN(CCC3CCN(NC(=O)c4ccc(Nc5ncc(F)c(Nc6ccc(C(=O)Nc7ccccc7Cl)cc6)n5)cc4F)CC3)CC2)c(F)cc1C1CCC(=O)NC1=O (stereo not shown) [Compound 119, 4-((4-((4-((2-chlorophenyl)carbamoyl)phenyl)amino)-5-fluoropyrimidin-2-yl)amino)-N-(4-(2-(4-(4-(2,6-dioxopiperidin-3-yl)-2-fluoro-5-methoxyphenyl)piperazin-1-yl)ethyl)piperidin-1-yl)-2-fluorobenzamide]

Second part, the molecule before the results:

Row | SMILES | luminescence value (Level) (10 nM compound) | luminescence value (Level) (100 nM compound)
6 | O=C1CCC(c2ccc(N3CCN(CCN4CC[C@@H](NC(=O)c5ccc(Nc6ncc(F)c(Nc7ccc(C(=O)Nc8ccccc8Cl)cc7)n6)cc5)C4)CC3)cc2)C(=O)N1 (stereo partly drawn) [Compound 64, N-(2-chlorophenyl)-4-((2-((4-(((3R)-1-(2-(4-(4-(2,6-dioxopiperidin-3-yl)phenyl)piperazin-1-yl)ethyl)pyrrolidin-3-yl)carbamoyl)phenyl)amino)-5-fluoropyrimidin-4-yl)amino)benzamide] | B (B is 0.3 to 0.5) | A (A is <0.2)
7 | O=C1CCC(c2ccc(N3CCN(CCN4CC[C@H](NC(=O)c5ccc(Nc6ncc(F)c(Nc7ccc(C(=O)Nc8ccccc8Cl)cc7)n6)cc5)C4)CC3)cc2)C(=O)N1 (stereo partly drawn) [Compound 68, N-(2-chlorophenyl)-4-((2-((4-(((3S)-1-(2-(4-(4-(2,6-dioxopiperidin-3-yl)phenyl)piperazin-1-yl)ethyl)pyrrolidin-3-yl)carbamoyl)phenyl)amino)-5-fluoropyrimidin-4-yl)amino)benzamide] | B (B is 0.3 to 0.5) | A (A is <0.2)
8 | COc1cc(C(=O)NN2CCC(CCN3CCN(c4ccc(C5CCC(=O)NC5=O)cc4)CC3)CC2)ccc1Nc1ncc(F)c(Nc2ccc(C(=O)Nc3ccccc3Cl)cc2)n1 (stereo not shown) [Compound 84, 4-((4-((4-((2-chlorophenyl)carbamoyl)phenyl)amino)-5-fluoropyrimidin-2-yl)amino)-N-(4-(2-(4-(4-(2,6-dioxopiperidin-3-yl)phenyl)piperazin-1-yl)ethyl)piperidin-1-yl)-3-methoxybenzamide] | C (C is 0.5 to 0.7) | B (B is 0.2 to 0.4)
9 | O=C1CC[C@H](NC(=O)c2ccc(N3CCN(CCC4CCN(NC(=O)c5ccc(Nc6ncc(F)c(Nc7ccc(C(=O)Nc8ccccc8Cl)cc7)n6)cc5)CC4)CC3)cn2)C(=O)N1 [Compound 87, (S)-5-(4-(2-(1-(4-((4-((4-((2-chlorophenyl)carbamoyl)phenyl)amino)-5-fluoropyrimidin-2-yl)amino)benzamido)piperidin-4-yl)ethyl)piperazin-1-yl)-N-(2,6-dioxopiperidin-3-yl)picolinamide] | B (B is 0.3 to 0.5) | B (B is 0.2 to 0.4)
10 | O=C1CC[C@H](NC(=O)c2ccc(N3CCN(CCC4CCN(NC(=O)c5ccc(Nc6ncc(F)c(Nc7ccc(C(=O)Nc8ccccc8Cl)cc7)n6)cc5)CC4)CC3)cc2F)C(=O)N1 [Compound 89, (S)-4-(4-(2-(1-(4-((4-((4-((2-chlorophenyl)carbamoyl)phenyl)amino)-5-fluoropyrimidin-2-yl)amino)benzamido)piperidin-4-yl)ethyl)piperazin-1-yl)-N-(2,6-dioxopiperidin-3-yl)-2-fluorobenzamide] | B (B is 0.3 to 0.5) | B (B is 0.2 to 0.4)
11 | O=C1CCC(c2ccc(N3CCN(CCC4CCN(NC(=O)c5ccc(Nc6ncc(F)c(Nc7ccc(C(=O)Nc8ccccc8Cl)cc7)n6)nc5)CC4)CC3)cc2)C(=O)N1 (stereo not shown) [Compound 91, 6-[[4-[4-[(2-chlorophenyl)carbamoyl]anilino]-5-fluoro-pyrimidin-2-yl]amino]-N-[4-[2-[4-[4-(2,6-dioxo-3-piperidyl)phenyl]piperazin-1-yl]ethyl]-1-piperidyl]pyridine-3-carboxamide] | D (D is 0.7 to 0.8) | C (C is 0.4 to 0.6)
